The test system of test [1] is OTX2+ imDAP cells. The test can be described thus: FACS analysis of OTX2 expression of imDAP cells derived from hiPSCs. The format is cell-based, human. The conditions noted are these: 4-step protocol, Day 16. The method, then:
• 1. Individualize and collect cells by either Accutase or TrypLE treatment. • 2. Wash cells with 1 ml PBS and pellet cells at 250×g for […]. • 3. Remove supernatant, add ˜200 μl of 4% PFA, mix and fix for 10 min at RT. • 4. Pellet cells at 350×g for 5 min. • 5. Wash cells by 1 ml of FACS buffer and pellet cells at 350×g for 5 min. • 6. Remove supernatant, add 200 μl/tube of FACS buffer/0.1% Triton X, mix for 10 min at RT. • 7. Wash cells by 1 ml of FACS buffer and pellet cells at 350×g for 5 min. • 8. Remove supernatant, add 200 μl/tube of primary antibody diluted in FACS buffer, mix gently, and incubate for 30 min at RT. • 9. Wash cells by 1 ml of FACS buffer and pellet cells at 350×g for 5 min. • 10. Remove supernatant, and add 200 μl of secondary antibody diluted in FACS buffer, mix gently, and incubate for 30 min at RT. • 11. Wash cells by 1 ml of FACS buffer and pellet cells at 300×g for 5 min. • 12. Remove supernatant, add 200 μl of FACS buffer, and run samples on the flow cytometer.
On Day-1, EB formation (Stage 1) was carried out by dissociating hiPSCs (Nuwacell) to form a single-cell suspension and resuspending it in Epic medium (Nuwacell, #RP01001) containing 10 μM Blebbistatin (MCE, #HY-13441) in T25 flasks on a belly dancer and culturing the cells overnight. On Day 0, ventral midbrain floor plate differentiation (Stage 2) was initiated by changing the medium to a Stage 2-1 differentiation medium containing DMEM: F12/B27 (plus Vitamin A) (98:2, v/v) as basal medium and supplemented with 0.5 μM LDN193189, 10 μM SB431542, 500 ng/mL SHH C24II, 2 μM Purmorphamine, 10 nM SAG and 1.2 μM CHIR99021 and culturing the cells for 3 Days. […] The cells of each group were stained with OTX2-FITC antibody (Miltenyi, #130-121-195), the percentage of OTX2+ imDAP cells were analyzed by flow cytometry (FIG. 8A). The cells obtained by Boost-CHIR treatment from D4 to D6, D7 or D8, or from D5 to D7 or D8 were analyzed by qRT-PCR for dorsal midbrain marker PAX6 (FIG. 8B).

Test [2] relates to PAX6. The test can be described thus: qRT-PCR analysis of dorsal midbrain marker PAX6 in imDAP cells. The class given is cell-based, human. To be noted: exposure to Boost-CHIR 7.5 μM from Day 4 compared to from Day 5. The method, then:
(1) qRT-PCR • 1. For qRT-PCR analysis of mRNA gene expression, RNA should be harvested from at least 2×10^6 cells. • 2. Harvest cells, add 350 μl of buffer RLT+1% (vol/vol) β-mercaptoethanol to the well, transfer the lysate to a 1.5 ml tube, and put it immediately on ice. • 3. Perform RNA extraction using the Tiangen Kit (DP430) and following the manufacturer's protocol ‘Purification of total RNA from animal and human cells’. • 4. When the RNA extraction was completed, determine the RNA concentration using a Nanodrop instrument. • 5. Perform the first-strand cDNA synthesis reaction with 1 μg of RNA using the HiScript™ II Q RT SuperMIX for qPCR (+gDNA wiper) Kit (Vazyme, #R223-01) for RT-qPCR. Follow the manufacturer's ‘First-Strand cDNA Synthesis’ protocol. This reaction would yield a 20 μl product. • 6. Dilute 10 μl cDNA product in 80 μl of nuclease-free water. • 7. […] In the analysis, the expression level of gene was determined by using a sample of undifferentiated hPSCs as control. • 8. Analyze the samples by running a quantitative PCR on the LightCycler 480 instrument using a 40x cycle two-step protocol with a 60° C., 60 sec annealing/elongation step and a 95° C., 30 sec denaturation step. […]

Experimental findings from patent US20250136934A1, “PRODUCTION OF INDUCED MIDBRAIN DOPAMINERGIC PROGENITOR CELLS FROM PLURIPOTENT STEM CELLS” (NUWACELL BIOTECHNOLOGIES CO., LTD., priority 2023, published 2025) are described below.

As for `Cc1cnc(-c2cnc(NCCNc3ccc(C#N)cn3)nc2-c2ccc(Cl)cc2Cl)[nH]1` [CHIR, CHIR99021], the “percentage of cells positive for OTX2” value in test [1] (Boost-CHIR 7.5 μM from Day 4 to Day 6 (Stage 2-2)) amounted to 75.29%; in test [1] (Boost-CHIR 7.5 μM from Day 4 to Day 7 (Stage 2-2)), 71.92%; in test [1] (Boost-CHIR 7.5 μM from Day 4 to Day 8 (Stage 2-2)), 79.83%. For the same compound, in test [2], the “expression of PAX6” value was “lower”.
